Measurements taken from patent US20260206755A1, “COMPOUNDS AND COMPOSITIONS HAVING KNOCK-DOWN OR BLOOD FEED INHIBITION ACTIVITY AGAINST INSECT PESTS” (priority 2017, published 2026).
Like-named read-outs stand apart in the source and are kept apart here.

Tested on: Anopheles stephensi
Test: Anopheles stephensi treated well plate contact test: knockdown and mortality
Assay type: in vivo
Procedure, shortened: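 Well surfaces coated with ethanol solution of compound at a defined concentration, alone or with 2 ppm TFNA-AM, then dried. Five non-blood-fed 2–5-day-old adult females per well, fed 10% sucrose; knockdown scored at 1 hour, mortality at 24 and 48 hours, replicate means reported.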

[1] = test compound 0.2 ppm plus 2 ppm TFNA-AM, after 24 hours
[2] = test compound 0.2 ppm plus 2 ppm TFNA-AM, after 48 hours
[3] = test compound 0.2 ppm plus 2 ppm TFNA-AM, knockdown after 1 hour
[4] = test compound 2 ppm plus 2 ppm TFNA-AM, after 24 hours
[5] = test compound 2 ppm plus 2 ppm TFNA-AM, after 48 hours
[6] = test compound 2 ppm plus 2 ppm TFNA-AM, knockdown after 1 hour
[7] = test compound 20 ppm plus 2 ppm TFNA-AM, after 24 hours
[8] = test compound 20 ppm plus 2 ppm TFNA-AM, after 48 hours
[9] = test compound 20 ppm plus 2 ppm TFNA-AM, knockdown after 1 hour
[10] = test compound 200 ppm plus 2 ppm TFNA-AM, after 24 hours
[11] = test compound 200 ppm plus 2 ppm TFNA-AM, after 48 hours
[12] = test compound 200 ppm plus 2 ppm TFNA-AM, knockdown after 1 hour
[13] = test compound 0.2 ppm, without TFNA-AM, after 24 hours
[14] = test compound 0.2 ppm, without TFNA-AM, after 48 hours
[15] = test compound 0.2 ppm, without TFNA-AM, knockdown after 1 hour
[16] = test compound 2 ppm, without TFNA-AM, after 24 hours
[17] = test compound 2 ppm, without TFNA-AM, after 48 hours
[18] = test compound 2 ppm, without TFNA-AM, knockdown after 1 hour
[19] = test compound 20 ppm, without TFNA-AM, after 24 hours
[20] = test compound 20 ppm, without TFNA-AM, after 48 hours
[21] = test compound 20 ppm, without TFNA-AM, knockdown after 1 hour
[22] = test compound 200 ppm, without TFNA-AM, after 24 hours
[23] = test compound 200 ppm, without TFNA-AM, after 48 hours
[24] = test compound 200 ppm, without TFNA-AM, knockdown after 1 hour, adult females

Compound | mortality % 24, with TFNA-AM [1] | mortality % 48, with TFNA-AM [2] | Knock Down, with TFNA-AM [3] | mortality % 24, with TFNA-AM [4] | mortality % 48, with TFNA-AM [5] | Knock Down, with TFNA-AM [6] | mortality % 24, with TFNA-AM [7] | mortality % 48, with TFNA-AM [8] | Knock Down, with TFNA-AM [9] | mortality % 24, with TFNA-AM [10] | mortality % 48, with TFNA-AM [11] | Knock Down, with TFNA-AM [12] | mortality % 24, without TFNA-AM [13] | mortality % 48, without TFNA-AM [14] | Knock Down, without TFNA-AM [15] | mortality % 24, without TFNA-AM [16] | mortality % 48, without TFNA-AM [17] | Knock Down, without TFNA-AM [18] | mortality % 24, without TFNA-AM [19] | mortality % 48, without TFNA-AM [20] | further results
CON=C(C(=O)OC)c1ccccc1CON=C(C)c1cccc(C(F)(F)F)c1 [Trifloxystrobin] | 0% | 0% | 100% | 60% | 70% | 100% | 100% | 100% | 100% | 100% | 100% | 100% | – | – | – | – | – | – | – | – | mortality at 0.2 ppm (Anopheles stephensi, test compound 0.2 ppm, without TFNA-AM, after 24 hours, read-out: mortality % 24, without TFNA-AM): 0%; mortality at 0.2 ppm (Anopheles stephensi, test compound 0.2 ppm, without TFNA-AM, after 48 hours, read-out: mortality % 48, without TFNA-AM): 0%; pest or weed control at 0.2 ppm (Anopheles stephensi, test compound 0.2 ppm, without TFNA-AM, knockdown after 1 hour, read-out: Knock Down, without TFNA-AM): 0%; mortality at 2 ppm (Anopheles stephensi, test compound 2 ppm, without TFNA-AM, after 24 hours, read-out: mortality % 24, without TFNA-AM): 0%; mortality at 2 ppm (Anopheles stephensi, test compound 2 ppm, without TFNA-AM, after 48 hours, read-out: mortality % 48, without TFNA-AM): 0%; pest or weed control at 2 ppm (Anopheles stephensi, test compound 2 ppm, without TFNA-AM, knockdown after 1 hour, read-out: Knock Down, without TFNA-AM): 50%; mortality at 20 ppm (Anopheles stephensi, test compound 20 ppm, without TFNA-AM, after 24 hours, read-out: mortality % 24, without TFNA-AM): 0%; mortality at 20 ppm (Anopheles stephensi, test compound 20 ppm, without TFNA-AM, after 48 hours, read-out: mortality % 48, without TFNA-AM): 0%; pest or weed control at 20 ppm (Anopheles stephensi, test compound 20 ppm, without TFNA-AM, knockdown after 1 hour, read-out: Knock Down, without TFNA-AM): 70%; mortality at 200 ppm (Anopheles stephensi, test compound 200 ppm, without TFNA-AM, after 24 hours, read-out: mortality % 24, without TFNA-AM): 0%; mortality at 200 ppm (Anopheles stephensi, test compound 200 ppm, without TFNA-AM, after 48 hours, read-out: mortality % 48, without TFNA-AM): 0%; pest or weed control at 200 ppm (Anopheles stephensi, test compound 200 ppm, without TFNA-AM, knockdown after 1 hour, adult females, read-out: Knock Down, without TFNA-AM): 80%
O=c1c(-c2cccc(C(F)(F)F)c2)c([O-])[n+](Cc2cncnc2)c2ccccn12 [Triflumizopyrim] | 0% | 0% | 100% | 50% | 50% | 100% | 90% | 100% | 100% | 100% | 100% | 100% | 0% | 0% | 0% | 0% | 0% | 0% | 0% | 10% | Knock Down, without TFNA-AM [21]: 0%; mortality % 24, without TFNA-AM [22]: 40%; mortality % 48, without TFNA-AM [23]: 40%; Knock Down, without TFNA-AM [24]: 0%
Abamectin | 20% | 27% | 100% | 47% | 53% | 100% | 93% | 100% | 100% | 100% | 100% | 100% | 13% | 20% | 0% | 13% | 33% | 0% | 53% | 87% | Knock Down, without TFNA-AM [21]: 7%; mortality % 24, without TFNA-AM [22]: 100%; mortality % 48, without TFNA-AM [23]: 100%; Knock Down, without TFNA-AM [24]: 47%
Emamectin benzoate | 30% | 20% | 100% | 60% | 60% | 100% | 100% | 100% | 100% | 100% | 100% | 100% | 0% | 0% | 0% | 0% | 10% | 0% | 40% | 90% | Knock Down, without TFNA-AM [21]: 0%; mortality % 24, without TFNA-AM [22]: 40%; mortality % 48, without TFNA-AM [23]: 90%; Knock Down, without TFNA-AM [24]: 0%
Spinosad | 80% | 100% | 100% | 100% | 100% | 100% | 100% | 80% | 100% | 100% | 100% | 100% | 0% | 0% | 40% | 0% | 0% | 40% | 0% | 0% | Knock Down, without TFNA-AM [21]: 40%; mortality % 24, without TFNA-AM [22]: 40%; mortality % 48, without TFNA-AM [23]: 40%; Knock Down, without TFNA-AM [24]: 60%
